Laboratory results as given in US20230265151A1, “GIP/GLP1 CO-AGONIST COMPOUNDS” (priority 2020, published 2023).
Where two headings read alike, the source gives them in different places.

Experiments:
Format in all cases: cell-based
hGIPR = target: T1, hGIPR (Homo sapiens, UniProt P48546); assay: Functional cAMP formation (HTRF) in HEK-293 clonal cells expressing hGIPR, 0.1% bovine casein, without or with 1.0% human serum albumin; conditions: for EC50: 0.1% bovine casein and 1.0% human serum albumin, geometric mean
T1 construct: expressed in transfected cells
T1 sequence (P48546 22-466): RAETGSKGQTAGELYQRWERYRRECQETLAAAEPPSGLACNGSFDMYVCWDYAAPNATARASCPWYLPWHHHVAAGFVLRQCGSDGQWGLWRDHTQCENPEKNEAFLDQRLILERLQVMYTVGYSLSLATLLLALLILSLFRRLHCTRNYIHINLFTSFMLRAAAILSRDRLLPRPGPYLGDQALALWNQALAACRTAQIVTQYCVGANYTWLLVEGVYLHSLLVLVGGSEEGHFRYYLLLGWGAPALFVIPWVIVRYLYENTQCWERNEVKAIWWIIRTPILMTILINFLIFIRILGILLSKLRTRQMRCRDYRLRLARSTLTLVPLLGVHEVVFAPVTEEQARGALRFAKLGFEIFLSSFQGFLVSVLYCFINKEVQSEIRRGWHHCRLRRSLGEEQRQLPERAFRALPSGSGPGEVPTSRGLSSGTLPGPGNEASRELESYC
In short: (§1)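 Cells were stimulated with peptide for 30 min at 37° C, then lysed in buffer carrying cAMP-d2 and anti-cAMP Eu3+-cryptate for a competitive HTRF read after at least 60 min at room temperature. The 665/620 nm ratio was converted to nM cAMP against a standard curve.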

hGLP-1R = hGLP-1R (Homo sapiens, UniProt P43220); assay: Functional cAMP formation (HTRF) in HEK-293 clonal cells expressing hGLP-1R, 0.1% bovine casein, without or with 1.0% human serum albumin; design: expressed in transfected cells; conditions: for EC50: geometric mean
Chain of hGLP-1R (P43220 24-463): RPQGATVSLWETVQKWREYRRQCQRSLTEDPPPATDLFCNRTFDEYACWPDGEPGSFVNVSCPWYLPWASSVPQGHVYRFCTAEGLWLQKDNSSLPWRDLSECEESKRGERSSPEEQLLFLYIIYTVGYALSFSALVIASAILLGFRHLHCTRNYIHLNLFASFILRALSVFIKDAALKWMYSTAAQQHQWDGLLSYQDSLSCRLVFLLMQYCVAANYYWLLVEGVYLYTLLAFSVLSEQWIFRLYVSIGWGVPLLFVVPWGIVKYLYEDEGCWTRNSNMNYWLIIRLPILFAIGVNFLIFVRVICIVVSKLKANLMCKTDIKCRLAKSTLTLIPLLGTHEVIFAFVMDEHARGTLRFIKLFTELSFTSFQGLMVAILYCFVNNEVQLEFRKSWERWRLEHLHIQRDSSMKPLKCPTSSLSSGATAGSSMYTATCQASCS
In short: as §1

hGCGR = target: T2, hGCGR (Homo sapiens, UniProt P47871); assay: Functional cAMP formation (HTRF) in HEK-293 clonal cells expressing hGCGR, 0.1% bovine casein, without or with 1.0% human serum albumin; conditions: geometric mean
T2 construct: expressed in transfected cells
T2 sequence (P47871 26-477): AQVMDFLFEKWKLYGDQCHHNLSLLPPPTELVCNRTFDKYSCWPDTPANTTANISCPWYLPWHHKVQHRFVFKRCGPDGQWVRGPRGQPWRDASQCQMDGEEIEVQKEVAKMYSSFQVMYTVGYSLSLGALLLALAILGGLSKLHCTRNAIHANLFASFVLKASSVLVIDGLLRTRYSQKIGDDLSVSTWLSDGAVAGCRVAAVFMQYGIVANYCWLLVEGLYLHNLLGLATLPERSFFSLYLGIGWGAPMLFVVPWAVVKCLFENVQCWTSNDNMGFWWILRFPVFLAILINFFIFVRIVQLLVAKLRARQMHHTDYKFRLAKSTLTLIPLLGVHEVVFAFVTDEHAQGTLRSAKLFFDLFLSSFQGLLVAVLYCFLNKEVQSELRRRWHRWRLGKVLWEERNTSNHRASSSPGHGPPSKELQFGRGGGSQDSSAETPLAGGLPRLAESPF
In short: as §1

[1] = HEK293, 0.1% bovine casein and 1.0% human serum albumin, 37° C., percent of maximal response to GIP(1-42)NH2, read-out: hGIPR Emax, % ± SEM
[2] = HEK293, 0.1% bovine casein and 1.0% human serum albumin, 37° C., percent of maximal response to GLP-1(7-36)NH2, read-out: hGLP-1R Emax, % ± SEM
[3] = 0.1% bovine casein and 1.0% human serum albumin, 37° C., read-out: hGCGR EC50, nM (SEM, n)
[4] = cAMP, 37° C., 0.1% bovine casein (no human serum albumin), read-out: hGCGR EC50, nM (SEM, n)
[5] = 37° C., read-out: hGIPR EC50, nM (SEM, n)

With `CC[C@H](C)[C@H](NC(=O)[C@H](CCCN)NC(=O)[C@H](CC(=O)O)NC(=O)[C@H](CC(C)C)NC(=O)[C@](C)(CC(C)C)NC(=O)[C@@H](NC(=O)[C@H](CO)NC(=O)[C@H](Cc1ccncc1)NC(=O)[C@H](CC(=O)O)NC(=O)[C@H](CO)NC(=O)[C@@H](NC(=O)[C@](C)(Cc1ccccc1F)NC(=O)[C@@H](NC(=O)CNC(=O)[C@H](CCC(=O)O)NC(=O)C(C)(C)NC(=O)[C@@H](N)Cc1ccc(O)cc1)[C@@H](C)O)[C@@H](C)O)[C@@H](C)CC)C(=O)N[C@@H](C)C(=O)N[C@@H](CCC(N)=O)C(=O)NC(C)(C)C(=O)N[C@@H](CCC(=O)O)C(=O)N[C@@H](Cc1ccccc1)C(=O)N[C@H](C(=O)N[C@@H](CCCCNC(=O)COCCOCCNC(=O)COCCOCCNC(=O)CC[C@H](NC(=O)CCCCCCCCCCCCC(=O)O)C(=O)O)C(=O)N[C@@](C)(Cc1ccc(O)cc1)C(=O)N[C@@H](CC(C)C)C(=O)N[C@H](C(=O)N[C@@H](CCC(=O)O)C(=O)NCC(=O)NCC(=O)N1CCC[C@H]1C(=O)N[C@@H](CO)C(=O)N[C@@H](CO)C(=O)NCC(=O)N[C@@H](C)C(=O)N1CCC[C@H]1C(=O)N1CCC[C@H]1C(=O)N1CCC[C@H]1C(=O)N[C@@H](CO)C(=O)N[C@@H](CCCCNC(=O)COCCOCCNC(=O)COCCOCCNC(=O)CC[C@H](NC(=O)CCCCCCCCCCCCC(=O)O)C(=O)O)C(N)=O)[C@@H](C)CC)[C@@H](C)CC` [Example 72] the Emax (hGIPR; HEK293, read-out: hGIPR Emax, % ± SEM, 0.1% bovine casein and 1.0% human serum albumin, 37° C., percent of maximal response to GIP(1-42)NH2) was 95.9%, the Emax (hGIPR; HEK293, read-out: hGIPR Emax, % ± SEM, percent of maximal response to GIP(1-42)NH2, 37° C., 0.1% bovine casein, arithmetic mean) was 96.5 ± 3.71% and the EC50 (hGIPR; hGIPR EC50, nM (SEM, n), 37° C.) was 3.55 nM. It also gave an Emax (hGLP-1R; HEK293, read-out: hGLP-1R Emax, % ± SEM, 0.1% bovine casein and 1.0% human serum albumin, 37° C., percent of maximal response to GLP-1(7-36)NH2) of 98.8%, an EC50 (hGLP-1R; hGLP-1R EC50, nM (SEM, n), 0.1% bovine casein and 1.0% human serum albumin, 37° C.) of 40.1 nM and an EC50 (hGLP-1R; hGLP-1R EC50, nM (SEM, n), cAMP, incubated at 37° C., 0.1% bovine casein (no human serum albumin)) of 0.245 nM. The EC50 (hGCGR; hGCGR EC50, nM (SEM, n), 0.1% bovine casein and 1.0% human serum albumin, 37° C.) was over 9950 nM and the EC50 (hGCGR; hGCGR EC50, nM (SEM, n), cAMP, incubated at 37° C., 0.1% bovine casein (no human serum albumin)) was over 9950 nM.

`CC[C@H](C)[C@H](NC(=O)[C@H](CCCN)NC(=O)[C@H](CC(=O)O)NC(=O)[C@H](CC(C)C)NC(=O)[C@](C)(CC(C)C)NC(=O)[C@@H](NC(=O)[C@H](CO)NC(=O)[C@H](CCc1ccc(O)cc1)NC(=O)[C@H](CC(=O)O)NC(=O)[C@H](CO)NC(=O)[C@@H](NC(=O)[C@](C)(Cc1ccccc1F)NC(=O)[C@@H](NC(=O)CNC(=O)[C@H](CCC(=O)O)NC(=O)C(C)(C)NC(=O)[C@@H](N)Cc1ccc(O)cc1)[C@@H](C)O)[C@@H](C)O)[C@@H](C)CC)C(=O)N[C@@H](C)C(=O)N[C@@H](CCC(N)=O)C(=O)NC(C)(C)C(=O)N[C@@H](CCC(=O)O)C(=O)N[C@@H](Cc1ccccc1)C(=O)N[C@H](C(=O)N[C@@H](CCCCNC(=O)COCCOCCNC(=O)COCCOCCNC(=O)CC[C@H](NC(=O)CCCCCCCCCCCCC(=O)O)C(=O)O)C(=O)N[C@@](C)(Cc1ccc(O)cc1)C(=O)N[C@@H](CC(C)C)C(=O)N[C@H](C(=O)N[C@@H](CCCCNC(=O)COCCOCCNC(=O)COCCOCCNC(=O)CC[C@H](NC(=O)CCCCCCCCCCCCC(=O)O)C(=O)O)C(=O)NCC(=O)NCC(=O)N1CCC[C@H]1C(=O)N[C@@H](CO)C(=O)N[C@@H](CO)C(=O)NCC(=O)N[C@@H](C)C(=O)N1CCC[C@H]1C(=O)N1CCC[C@H]1C(=O)N1CCC[C@H]1C(=O)N[C@@H](CO)C(N)=O)[C@@H](C)CC)[C@@H](C)CC` [Example 270] showed an Emax (hGIPR; [1]) of 80.9%, an Emax (hGIPR; HEK293, cAMP, 37° C., 0.1% bovine casein, percent of maximal response to GIP(1-42)NH2, arithmetic mean, read-out: hGIPR Emax, % ± SEM) of 91.7% and an EC50 (hGLP-1R; 0.1% bovine casein and 1.0% human serum albumin, 37° C., read-out: hGLP-1R EC50, nM (SEM, n)) of 32.6 nM. It also gave an Emax (hGLP-1R; [2]) of 111%, an Emax (hGLP-1R; HEK293, cAMP, 37° C., 0.1% bovine casein, percent of maximal response to GLP-1(7-36)NH2, arithmetic mean, read-out: hGLP-1R Emax, % ± SEM) of 97% and an EC50 (hGCGR; [3]) of over 9950 nM. For the same molecule, the EC50 (hGCGR; [4]) was over 9950 nM.

In the case of `CC[C@H](C)[C@H](NC(=O)[C@H](CC(C)C)NC(=O)[C@](C)(Cc1ccc(O)cc1)NC(=O)[C@@H](CCC(=O)O)NC(=O)[C@@H](NC(=O)[C@H](Cc1ccccc1)NC(=O)[C@H](CCC(=O)O)NC(=O)C(C)(C)NC(=O)[C@H](CCC(N)=O)NC(=O)[C@H](C)NC(=O)[C@H](CCCCNC(=O)COCCOCCNC(=O)COCCOCCNC(=O)COCCOCCNC(=O)CC[C@H](NC(=O)CCCCCCCCCCCCC(=O)O)C(=O)O)NC(=O)[C@H](CCCN)NC(=O)[C@H](CC(=O)O)NC(=O)[C@H](CC(C)C)NC(=O)[C@](C)(CC(C)C)NC(=O)[C@@H](NC(=O)[C@H](CO)NC(=O)[C@H](Cc1ccncc1)NC(=O)[C@H](CC(=O)O)NC(=O)[C@H](CO)NC(=O)[C@@H](NC(=O)[C@](C)(Cc1ccccc1F)NC(=O)[C@@H](NC(=O)CNC(=O)[C@H](CCC(=O)O)NC(=O)C(C)(C)NC(=O)[C@@H](N)Cc1ccc(O)cc1)[C@@H](C)O)[C@@H](C)O)[C@@H](C)CC)[C@@H](C)CC)C(=O)N[C@@H](CCCCNC(=O)COCCOCCNC(=O)COCCOCCNC(=O)COCCOCCNC(=O)CC[C@H](NC(=O)CCCCCCCCCCCCC(=O)O)C(=O)O)C(=O)NCC(=O)NCC(=O)N1CCC[C@H]1C(=O)N[C@@H](CO)C(=O)N[C@@H](CO)C(=O)NCC(=O)N[C@@H](C)C(=O)N1CCC[C@H]1C(=O)N1CCC[C@H]1C(=O)N1CCC[C@H]1C(=O)N[C@@H](CO)C(N)=O` [Example 224], the EC50 (hGIPR; [5]) is reported as 2.92 nM, the Emax (hGIPR; [1]) is reported as 90.6% and the Emax (hGIPR; HEK293, percent of maximal response to GIP(1-42)NH2, 37° C., 0.1% bovine casein, arithmetic mean, read-out: hGIPR Emax, % ± SEM) is reported as 109%. The Emax (hGLP-1R; HEK293, percent of maximal response to GLP-1(7-36)NH2, 37° C., 0.1% bovine casein, arithmetic mean, read-out: hGLP-1R Emax, % ± SEM) was 88.4%, the EC50 (hGLP-1R; cAMP, incubated at 37° C., 0.1% bovine casein (no human serum albumin), read-out: hGLP-1R EC50, nM (SEM, n)) was 7.51 nM and the EC50 (hGCGR; [3]) was over 9950 nM. The EC50 (hGCGR; cAMP, incubated at 37° C., 0.1% bovine casein (no human serum albumin), read-out: hGCGR EC50, nM (SEM, n)) was over 9950 nM.

`CCCCCCCCCCCC(=O)N[C@@H](CCC(=O)NCCOCCOCC(=O)NCCOCCOCC(=O)NCCCC[C@H](NC(=O)[C@H](CCCN)NC(=O)[C@H](CC(=O)O)NC(=O)[C@H](CC(C)C)NC(=O)[C@](C)(CC(C)C)NC(=O)[C@@H](NC(=O)[C@H](CO)NC(=O)[C@H](Cc1ccc(OC)cc1)NC(=O)[C@H](CC(=O)O)NC(=O)[C@H](CO)NC(=O)[C@@H](NC(=O)[C@](C)(Cc1ccccc1F)NC(=O)[C@@H](NC(=O)CNC(=O)[C@H](CCC(=O)O)NC(=O)C(C)(C)NC(=O)[C@@H](N)Cc1ccc(O)cc1)[C@@H](C)O)[C@@H](C)O)[C@@H](C)CC)C(=O)N[C@@H](C)C(=O)N[C@@H](CCC(N)=O)C(=O)NC(C)(C)C(=O)N[C@@H](CCC(=O)O)C(=O)N[C@@H](Cc1ccccc1)C(=O)N[C@H](C(=O)N[C@H](CCC(=O)O)C(=O)N[C@@](C)(Cc1ccc(O)cc1)C(=O)N[C@@H](CC(C)C)C(=O)N[C@H](C(=O)N[C@@H](CCCCNC(=O)COCCOCCNC(=O)COCCOCCNC(=O)CC[C@H](NC(=O)CCCCCCCCCCC)C(=O)O)C(=O)NCC(=O)NCC(=O)N1CCC[C@H]1C(=O)N[C@@H](CO)C(=O)N[C@@H](CO)C(=O)NCC(=O)N[C@@H](C)C(=O)N1CCC[C@H]1C(=O)N1CCC[C@H]1C(=O)N1CCC[C@H]1C(=O)N[C@@H](CO)C(N)=O)[C@@H](C)CC)[C@@H](C)CC)C(=O)O` [Example 290] gave an EC50 (hGIPR; [5]) of 0.878 nM, an Emax (hGIPR; [1]) of 93.4% and an Emax (hGLP-1R; [2]) of 109%. It also gave an EC50 (hGCGR; [3]) of over 9950 nM and an EC50 (hGCGR; [4]) of over 9950 nM.
